# Starred links: 1 amine or outer side, 2 acyl side, 3 side chain; linkers in the order of their positions; H or OH if unused. Positions of bridges follow the written chain, without caps; N, C: chain ends. Non-standard residues stand in square brackets, D forms with d. Residues, ends and D or L forms follow the SMILES beside them. *: point of attachment. Phe(3-CH2NH2) = O=C([C@H](Cc1cccc(CN[*:3])c1)N[*:1])[*:2]; DOTA = O=C(O)CN1CCN(CC(=O)O)CCN(CC(=O)*)CCN(CC(=O)O)CC1; Trp(5-F) = N[C@@H](Cc1c[nH]c2ccc(F)cc12)C(=O)O; 1Nal = N[C@@H](Cc1cccc2ccccc12)C(=O)O; Ala(4-THP) = N[C@@H](CC1CCOCC1)C(=O)O; 4Pal = N[C@@H](Cc1ccncc1)C(=O)O; Tle = CC(C)(C)[C@H](N)C(=O)O; hLeu = CC(C)CC[C@H](N)C(=O)O; Nle = CCCC[C@H](N)C(=O)O; CH2 = C([*:1])[*:2]
# Biological target: T1, human 4lg B7-H3 (Homo sapiens, UniProt Q5ZPR3)
# T1 sequence (Q5ZPR3 29-534): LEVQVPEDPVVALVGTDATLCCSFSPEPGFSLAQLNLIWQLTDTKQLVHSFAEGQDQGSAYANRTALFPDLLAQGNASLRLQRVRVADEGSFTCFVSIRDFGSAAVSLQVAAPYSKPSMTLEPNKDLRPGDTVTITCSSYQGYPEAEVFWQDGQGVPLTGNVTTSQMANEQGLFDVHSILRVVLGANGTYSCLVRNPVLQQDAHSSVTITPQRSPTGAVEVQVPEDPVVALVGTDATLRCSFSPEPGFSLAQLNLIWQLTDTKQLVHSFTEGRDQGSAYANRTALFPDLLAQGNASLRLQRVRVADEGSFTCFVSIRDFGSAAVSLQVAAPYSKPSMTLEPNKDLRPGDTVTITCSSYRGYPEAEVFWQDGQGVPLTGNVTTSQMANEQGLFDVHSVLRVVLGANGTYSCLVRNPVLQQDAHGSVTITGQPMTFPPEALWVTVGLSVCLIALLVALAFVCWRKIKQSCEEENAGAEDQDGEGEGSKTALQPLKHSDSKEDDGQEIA
# Test: Affinity determination by surface plasmon resonance (SPR) to 4Ig B7-H3
# Details: SPR KD—25° C., 4Ig B7-H3; 25° C. flow cell temperature
row,SMILES,Kd [nM]
1,"CCCC[C@H](NC(C)=O)C(=O)N[C@@H](Cc1ccc(O)cc1)C(=O)N[C@H]1CSSC[C@@H](C(=O)N[C@@H](Cc2c[nH]c3ccccc23)C(=O)N[C@@H](Cc2ccccc2)C(=O)N[C@H](C(=O)N[C@H](CCCCNC(=O)CN2CCN(CC(=O)O)CCN(CC(=O)O)CCN(CC(=O)O)CC2)C(=O)O)[C@@H](C)O)NC(=O)[C@H](Cc2ccc(O)cc2)NC(=O)[C@H](C(C)C)NC(=O)[C@H](CC(=O)O)NC(=O)[C@H](Cc2ccc(O)cc2)NC(=O)[C@H](CCCCN)NC(=O)CNC(=O)[C@H](C(C)C)NC1=O [compound 28, Ac-Nle-Y-C-V-G-K-Y-D-V-Y-C-W-F-Thr-dLys(DOTA)-COOH] (Ac-[Nle]YCVGKYDVYCWFT[dK](DOTA)-OH; disulfide 3-11)",1 to 10
2,"CC(=O)N[C@@H](CCC(C)C)C(=O)N[C@@H](Cc1ccc(O)cc1)C(=O)N[C@H]1CSSC[C@@H](C(=O)N[C@@H](Cc2c[nH]c3ccc(F)cc23)C(=O)N[C@@H](Cc2ccccc2)C(=O)N2CCC[C@H]2C(=O)N[C@H](CCCCNC(=O)CN2CCN(CC(=O)O)CCN(CC(=O)O)CCN(CC(=O)O)CC2)C(=O)O)NC(=O)[C@H](Cc2ccc(O)cc2)NC(=O)[C@H](C(C)C)NC(=O)[C@H](CC(=O)O)NC(=O)[C@H](CC2CCOCC2)NC(=O)[C@H](CCCCN)NC(=O)CNC(=O)[C@H](C(C)(C)C)NC1=O [compound 304, Ac-hLeu-Y-C-Tbg-G-K-ThpA-D-V-Y-C-5FW-F-Pro-dLys(DOTA)-COOH] (Ac-[hLeu]YC[Tle]GK[Ala(4-THP)]DVYC[Trp(5-F)]FP[dK](DOTA)-OH; disulfide 3-11)",1 to 10
3,"CC(=O)N[C@@H](CCC(C)C)C(=O)N[C@@H](Cc1ccc(O)cc1)C(=O)N[C@H]1CSSC[C@@H](C(=O)N[C@@H](Cc2c[nH]c3ccc(F)cc23)C(=O)N[C@@H](Cc2ccccc2)C(=O)N2CCC[C@H]2C(=O)O)NC(=O)[C@H](Cc2ccc(O)cc2)NC(=O)[C@H](C(C)C)NC(=O)[C@H](CC(=O)O)NC(=O)[C@H](Cc2cccc(CNC(=O)CN3CCN(CC(=O)O)CCN(CC(=O)O)CCN(CC(=O)O)CC3)c2)NC(=O)[C@H](CCCCN)NC(=O)CNC(=O)[C@H](C(C)C)NC1=O [compound 262, Ac-hLeu-Y-C-V-G-K-MAF(DOTA)-D-V-Y-C-5FW-F-Pro-COOH] (Ac-[hLeu]YCVGK[Phe(3-CH2NH2)](DOTA)DVYC[Trp(5-F)]FP-OH; disulfide 3-11)",10 to 100
4,"CC(=O)N[C@@H](CCC(C)C)C(=O)N[C@@H](Cc1ccc(O)cc1)C(=O)N[C@H]1CSSC[C@@H](C(=O)N[C@@H](Cc2c[nH]c3ccccc23)C(=O)N[C@@H](Cc2ccccc2)C(=O)N[C@H](C(N)=O)[C@@H](C)O)NC(=O)[C@H](Cc2ccc(O)cc2)NC(=O)[C@H](C(C)C)NC(=O)[C@H](CC(=O)O)NC(=O)[C@H](CCCCNC(=O)CN2CCN(CC(=O)O)CCN(CC(=O)O)CCN(CC(=O)O)CC2)NC(=O)[C@H](CCCCN)NC(=O)CNC(=O)[C@H](C(C)C)NC1=O [compound 144, Ac-hLeu-Y-C-V-G-K-Lys(DOTA)-D-V-Y-C-W-F-Thr-CONH2] (Ac-[hLeu]YCVGKK(DOTA)DVYCWFT-NH2; disulfide 3-11)",10 to 100
5,"CC(=O)N[C@@H](CCC(C)C)C(=O)N[C@@H](Cc1ccc(O)cc1)C(=O)N[C@H]1CSCSC[C@@H](C(=O)N[C@@H](Cc2cccc3ccccc23)C(=O)N[C@@H](Cc2ccccc2)C(=O)N2CCC[C@H]2C(N)=O)NC(=O)[C@H](Cc2ccc(O)cc2)NC(=O)[C@H](C(C)C)NC(=O)[C@H](CC(=O)O)NC(=O)[C@H](Cc2ccncc2)NC(=O)[C@H](CCCCNC(=O)CN2CCN(CC(=O)O)CCN(CC(=O)O)CCN(CC(=O)O)CC2)NC(=O)CNC(=O)[C@H](C(C)(C)C)NC1=O [compound 330, Ac-hLeu-Y-C(CH2)-Tbg-G-Lys(DOTA)-4PyA-D-V-Y-C-1Nal-F-Pro-CONH2] (Ac-[hLeu]YC[Tle]GK(DOTA)[4Pal]DVYC[1Nal]FP-NH2; linker 3-11 via CH2)",100 to 300

# Same assay, conditions: SPR KD—37° C., 4Ig B7-H3; 37° C. flow cell temperature
row,SMILES,Kd [nM]
1,"CCCC[C@H](NC(C)=O)C(=O)N[C@@H](Cc1ccc(O)cc1)C(=O)N[C@H]1CSSC[C@@H](C(=O)N[C@@H](Cc2c[nH]c3ccccc23)C(=O)N[C@@H](Cc2ccccc2)C(=O)N[C@H](C(=O)N[C@H](CCCCNC(=O)CN2CCN(CC(=O)O)CCN(CC(=O)O)CCN(CC(=O)O)CC2)C(=O)O)[C@@H](C)O)NC(=O)[C@H](Cc2ccc(O)cc2)NC(=O)[C@H](C(C)C)NC(=O)[C@H](CC(=O)O)NC(=O)[C@H](Cc2ccc(O)cc2)NC(=O)[C@H](CCCCN)NC(=O)CNC(=O)[C@H](C(C)C)NC1=O [compound 28, Ac-Nle-Y-C-V-G-K-Y-D-V-Y-C-W-F-Thr-dLys(DOTA)-COOH] (Ac-[Nle]YCVGKYDVYCWFT[dK](DOTA)-OH; disulfide 3-11)",1 to 10

# Reference: patent US20250296959A1, “B7-H3 TARGETING PEPTIDES AND CONSTRUCTS THEREOF” (Mariana Oncology Inc., priority 2024, published 2025)
